Reference: ChEMBL document CHEMBL5316365, “Anti-Neuroinflammatory Meroterpenoids from a Chinese Collection of the Brown Alga Sargassum siliquastrum” (J Nat Prod, 2023)
Calls of active or inactive are those of the source. The calls are words filed in the database; no cut-off is given here.

Key:
[1] = test system: BV-2; assay: Anti-neuroinflammatory activity in LPS-induced mouse BV-2 cells assessed as inhibition of NO production pretreated for 4 hrs followed by LPS stimulation for 24 hrs by griess reagent based assay; assay type: functional, cell-based
[2] = Cytotoxicity against mouse BV-2 cells incubated for 24 hrs by MTT assay; assay type: toxicity, cell-based
[3] = test system: BV-2; assay: Antineuroinflammatory activity in LPS-induced mouse BV-2 cells assessed as decrease in IL-6 mRNA level preincubated for 4 hrs followed by LPS stimulation and measured after 6 hrs by RT-PCR method; assay type: functional, cell-based; conditions: dose 2.5-10 µM, time 10.0 hrs
[4] = test system: BV-2; assay: Antineuroinflammatory activity in LPS-induced mouse BV-2 cells assessed as decrease in IL-6 protein level pretreated for 4 hrs followed by LPS stimulation for 24 hrs by ELISA; assay type: functional, cell-based; conditions: dose 2.5-10 µM, time 28.0 hrs
[5] = test system: BV-2; assay: Antineuroinflammatory activity in LPS-induced mouse BV-2 cells assessed as downregulation of NF-kappaB p65 protein expression in nucleus at 5 to 10 uM pretreated for 4 hrs followed by LPS stimulation and measured after 24 hrs by Western blot analysis; assay type: functional, cell-based; conditions: dose 5-10 µM, time 28.0 hrs
[6] = test system: BV-2; assay: Antineuroinflammatory activity in LPS-induced mouse BV-2 cells assessed as decrease in IL-1beta mRNA level preincubated for 4 hrs followed by LPS stimulation and measured after 6 hrs by RT-PCR method; assay type: functional, cell-based; conditions: dose 2.5-10 µM, time 10.0 hrs
[7] = test system: BV-2; assay: Effect on NF-kbeta p65 total protein level in mouse BV-2 cells at 5 to 10 uM pretreated for 4 hrs followed by LPS stimulation and measured after 24 hrs by Western blot analysis; assay type: functional, cell-based; conditions: dose 5-10 µM, time 28.0 hrs
[8] = target: Transcription factor p65 (Mus musculus) (UniProt Q04207); assay: Inhibition of NF-kappaB p65 translocation from cytosol to nucleus in LPS-induced mouse BV-2 cells at 2.5 to 10 uM pretreated for 4 hrs followed by LPS stimulation and measured after 24 hrs by immunofluorescence analysis; assay type: cell-based; conditions: dose 2.5-10 µM, time 28.0 hrs
Transcription factor p65 (Mus musculus), sequence (Q04207 whole entry): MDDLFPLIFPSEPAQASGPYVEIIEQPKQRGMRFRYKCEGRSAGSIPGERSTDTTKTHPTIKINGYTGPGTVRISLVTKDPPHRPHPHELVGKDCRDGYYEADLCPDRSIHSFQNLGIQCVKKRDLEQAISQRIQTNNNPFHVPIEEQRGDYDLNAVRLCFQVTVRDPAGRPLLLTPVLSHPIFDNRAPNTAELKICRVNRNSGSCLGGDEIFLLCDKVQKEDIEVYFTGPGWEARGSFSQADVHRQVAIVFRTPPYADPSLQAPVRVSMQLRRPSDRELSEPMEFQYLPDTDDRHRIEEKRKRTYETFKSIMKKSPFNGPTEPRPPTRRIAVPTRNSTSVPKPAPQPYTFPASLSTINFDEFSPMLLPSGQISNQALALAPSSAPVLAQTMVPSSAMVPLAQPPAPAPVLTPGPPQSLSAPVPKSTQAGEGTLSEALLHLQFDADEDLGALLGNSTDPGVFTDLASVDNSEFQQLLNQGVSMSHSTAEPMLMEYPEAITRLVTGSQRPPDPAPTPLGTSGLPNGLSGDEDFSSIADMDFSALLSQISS

[9] = test system: BV-2; assay: Antineuroinflammatory activity in LPS-induced mouse BV-2 cells assessed as decrease in TNFalpha mRNA level preincubated for 4 hrs followed by LPS stimulation and measured after 6 hrs by RT-PCR method; assay type: functional, cell-based; conditions: dose 2.5-10 µM, time 10.0 hrs
[10] = target: Transcription factor p65 (Mus musculus) (UniProt Q04207); assay: Inhibition of NF-kappaB p65 translocation from cytosol to nucleus in LPS-induced mouse BV-2 cells at 5 to 10 uM pretreated for 4 hrs followed by LPS stimulation and measured after 24 hrs by Western blot analysis; assay type: cell-based; conditions: dose 5-10 µM, time 28.0 hrs
[11] = test system: BV-2; assay: Antineuroinflammatory activity in LPS-induced mouse BV-2 cells assessed as downregulation of IKK protein level in nucleus at 5 to 10 uM pretreated for 4 hrs followed by LPS stimulation and measured after 24 hrs by Western blot analysis; assay type: functional, cell-based; conditions: dose 5-10 µM, time 28.0 hrs
[12] = test system: BV-2; assay: Antineuroinflammatory activity in LPS-induced mouse BV-2 cells assessed as decrease in TNFalpha protein level pretreated for 4 hrs followed by LPS stimulation for 24 hrs by ELISA; assay type: functional, cell-based; conditions: dose 2.5-10 µM, time 28.0 hrs
[13] = test system: BV-2; assay: Antineuroinflammatory activity in LPS-induced mouse BV-2 cells assessed as decrease in IL-1beta protein level pretreated for 4 hrs followed by LPS stimulation for 24 hrs by ELISA; assay type: functional, cell-based; conditions: dose 2.5-10 µM, time 28.0 hrs
[14] = test system: BV-2; assay: Antineuroinflammatory activity in LPS-induced mouse BV-2 cells assessed as upregulation of IkappaB protein level in nucleus at 5 to 10 uM pretreated for 4 hrs followed by LPS stimulation and measured after 24 hrs by Western blot analysis; assay type: functional, cell-based; conditions: dose 5-10 µM, time 28.0 hrs

SMILES: CC(C)=C[C@H](O)[C@@H](O)/C(C)=C/CC/C(C)=C/CC[C@]1(C)CCc2cc(O)c(C)c(C)c2O1
- IC50 [1]: 25 µM
- CC50 at 24 h [2]: > 50 µM

SMILES: CC(C)=CC(=O)C/C(C)=C/CC/C(C)=C/CC[C@]1(C)CCc2cc(O)cc(C)c2O1
- IC50 [1]: > 30 µM
- CC50 at 24 h [2]: > 50 µM

SMILES: CC(=O)/C=C/C/C(C)=C/CC[C@]1(C)CCc2cc(O)cc(C)c2O1
- Activity [3]: Dose-Dependent Effect
- Activity [4]: Dose-Dependent Effect
- Activity [5]: Active
- Activity [6]: Dose-Dependent Effect
- Activity [7]: inactive
- IC50 [1]: 2 µM
- inhibition [8]: Active
- Activity [9]: Dose-Dependent Effect
- CC50 at 24 h [2]: > 50 µM
- inhibition [10]: Active
- Activity [11]: Active
- Activity [12]: Dose-Dependent Effect
- Activity [13]: Dose-Dependent Effect
- Activity [14]: Active

SMILES: C/C(=C\CC[C@]1(C)CCc2cc(O)cc(C)c2O1)CC/C=C(\C)C(=O)C(=O)CC(C)C
- IC50 [1]: 8 µM
- CC50 at 24 h [2]: > 50 µM

SMILES: C=C(CC/C=C(\C)[C@H](O)[C@@H](O)C=C(C)C)C(=O)CC[C@]1(C)CCc2cc(O)cc(C)c2O1
- IC50 [1]: 19 µM
- CC50 at 24 h [2]: > 50 µM

SMILES: C/C(=C\CC[C@]1(C)CCc2cc(O)cc(C)c2O1)CC/C=C(\C)C(=O)/C=C/C(C)(C)OO
- IC50 [1]: 29 µM
- CC50 at 24 h [2]: > 50 µM

SMILES: CC(C)=CC(O)C(=O)/C(C)=C/[C@H](O)C/C(C)=C/CC[C@]1(C)CCc2cc(O)cc(C)c2O1 (some centres not stated)
- IC50 [1]: 6 µM
- CC50 at 24 h [2]: > 50 µM

SMILES: CC(C)=CC(=O)C(=O)/C(C)=C/CC/C(C)=C/CC[C@]1(C)CCc2cc(O)cc(C)c2O1
- IC50 [1]: > 30 µM
- CC50 at 24 h [2]: > 50 µM

SMILES: CC(C)=CC(CO)/C(=C/CC/C(C)=C/CC[C@]1(C)CCc2cc(O)cc(C)c2O1)CO (some centres not stated)
- IC50 [1]: 5 µM
- CC50 at 24 h [2]: > 50 µM

SMILES: C/C(=C\CC[C@]1(C)CCc2cc(O)cc(C)c2O1)CC/C=C(\C)C(=O)/C=C/C(C)(C)O
- IC50 [1]: 13 µM
- CC50 at 24 h [2]: > 50 µM
